Measured values: US12185750B2, “Acyl nornicotines reduce sensory irritation in tobacco and nicotine products” (Altria Client Services LLC, priority 2015, dated 2025)
pIC50: −log10 of the molar value. Read-outs that look alike come from different tables or passages of the source.

Assays:
[1] = system: nicotine triggered release of CGRP in tracheal tissue; test: nicotine triggered CGRP release in mouse tracheal tissue; assay type: cell-based
Protocol: Mouse tracheal tissue samples are treated with N-Hexanoylnornicotine (10 μM) for 10 minutes. After five minutes of exposure, Nicotine (100 μM) is added to the tracheal tissue samples for the remaining five minutes of N-Hexanoylnornicotine exposure. CGRP release is measured for 15 minutes starting at the time point of N-Hexanoylnornicotine exposure. Control samples are exposed to Nicotine (100 μM) without the addition of N-Hexanoylnornicotine. […]
(§1) FIGS. 2-8 show the results of studies on the effect of acyl nornicotine on nicotine triggered release of CGRP. CGRP is a biomarker of sensory irritation, specifically a marker of neurogenic inflammation. Tracheal or buccal mouse tissue samples were each treated with N-Hexanoylnornicotine or N-Octanoylnornicotine prior to exposure to nicotine or potassium chloride (KCl), used as a control. The test compounds were provided in a synthetic interstitial fluid and the release of CGRP was measured.

[2] = system: nicotine triggered release of CGRP in buccal tissue; test: nicotine triggered CGRP release in mouse buccal tissue; assay type: cell-based; conditions: for effect on buccal nicotine response (CGRP release): 20 mM compound, Nicotine 20 mM, equimolar, FIG. 8
Protocol: Mouse buccal tissue samples are treated with 10 μM or 1 μM of N-Hexanoylnornicotine for 10 minutes. After five minutes of exposure, Nicotine (10 mM) is added to the buccal tissue samples for five minutes. CGRP release is measured for 15 minutes starting at the time point of N-Hexanoylnornicotine exposure. Control samples are exposed to Nicotine (10 mM) without the addition of N-Hexanoylnornicotine.
Mouse buccal tissue samples were treated with N-Hexanoylnornicotine (20 mM) or N-Octanoylnornicotine (20 mM) for 10 minutes. After 5 minutes of exposure, Nicotine (20 mM) was added to the […] tissue samples for five minutes. CGRP release is measured for 20 minutes starting five minutes prior to the time point of N-Octanoylnornicotine and N-Hexanoylnornicotine exposure. Control samples are exposed to Nicotine (20 mM) without the addition of N-Octanoylnornicotine or N-Hexanoylnornicotine.
as §1

[3] = system: tracheal potassium chloride (KCl) response; test: KCl triggered CGRP release in mouse tracheal tissue (control); assay type: cell-based; conditions: 10 μM compound, KCl 60 mM, FIG. 3
Protocol: As in FIG. 2, mouse tracheal tissue samples are treated with N-Hexanoylnornicotine (10 μM) for 10 minutes. After five minutes of exposure, KCl (60 mM) is added to the tracheal tissue samples for the remaining five minutes N-Hexanoylnornicotine exposure. CGRP release is measured for 15 minutes starting at the time point of N-Hexanoylnornicotine exposure. Control samples are exposed to KCl (60 mM) without the addition of N-Hexanoylnornicotine.
as §1

[4] = target: T1, human nicotinic acetylcholine receptor α3β4 (nACHR α3β4) (Homo sapiens, UniProt P30926+P32297); test: calcium influx in HEK293 cells expressing nACHR α3β4, co-applied with nicotine; assay type: cell-based
T1 construct: expressed in transfected cells; host or cells: HEK293
Protocol: Human cell line HEK293 were designed to express human nicotinic acetylcholine receptor α3β4 (nACHR α3β4), which is a receptor associated with sensory irritation. These cells were plated on 96 well plates and acyl nornicotines were co-applied with a concentration of nicotine sufficient to yield 100% cell activation of the receptor. The influx of calcium into the cell is measured as an indicator of receptor activation.

[5] = half-tongue test: acyl nornicotine pre-treatment before nicotine solution; assay type: in vivo, human
Protocol: The effect of pre-treatment with acyl nornicotine on sensory irritation from nicotine was tested using half-tongue test. N-Octanoylnornicotine was applied to tongues of human volunteers prior to application of a nicotine solution. Randomized sides of tongues were selected for application of liquid test sample or liquid control sample on filter paper. The liquid test sample or liquid control sample was applied to one side of a subject's tongue or the other. Blinded N-Octanoylnornicotine or water on filter paper was applied to the subject's tongue for 2 minutes, and then removed. […] After a 30 second wait, filter papers with added nicotine solutions were applied to the spots on the tongue where the pre-treatment filter papers had been applied. Over the following 2 minutes, subjects were asked to note sensory perceptions. Samples containing N-Octanoylnornicotine were at 10% of the level of the nicotine challenge samples.

[6] = HEK293 nACHR α3β4, calcium influx

T1 sequence (P32297 32-505): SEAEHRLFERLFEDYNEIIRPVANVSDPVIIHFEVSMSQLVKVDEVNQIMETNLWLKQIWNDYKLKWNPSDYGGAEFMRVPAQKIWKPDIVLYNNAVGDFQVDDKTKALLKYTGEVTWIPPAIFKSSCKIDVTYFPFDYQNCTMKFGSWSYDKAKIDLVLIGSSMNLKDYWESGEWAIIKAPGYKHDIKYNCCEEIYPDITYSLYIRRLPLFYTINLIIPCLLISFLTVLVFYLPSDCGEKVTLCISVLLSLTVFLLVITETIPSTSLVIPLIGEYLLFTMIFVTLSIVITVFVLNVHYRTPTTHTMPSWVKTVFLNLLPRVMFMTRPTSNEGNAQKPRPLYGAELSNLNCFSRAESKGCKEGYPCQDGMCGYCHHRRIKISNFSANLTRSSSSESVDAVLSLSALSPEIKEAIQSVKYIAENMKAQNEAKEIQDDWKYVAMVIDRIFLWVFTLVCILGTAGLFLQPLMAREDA
T1 sequence (P30926 22-498): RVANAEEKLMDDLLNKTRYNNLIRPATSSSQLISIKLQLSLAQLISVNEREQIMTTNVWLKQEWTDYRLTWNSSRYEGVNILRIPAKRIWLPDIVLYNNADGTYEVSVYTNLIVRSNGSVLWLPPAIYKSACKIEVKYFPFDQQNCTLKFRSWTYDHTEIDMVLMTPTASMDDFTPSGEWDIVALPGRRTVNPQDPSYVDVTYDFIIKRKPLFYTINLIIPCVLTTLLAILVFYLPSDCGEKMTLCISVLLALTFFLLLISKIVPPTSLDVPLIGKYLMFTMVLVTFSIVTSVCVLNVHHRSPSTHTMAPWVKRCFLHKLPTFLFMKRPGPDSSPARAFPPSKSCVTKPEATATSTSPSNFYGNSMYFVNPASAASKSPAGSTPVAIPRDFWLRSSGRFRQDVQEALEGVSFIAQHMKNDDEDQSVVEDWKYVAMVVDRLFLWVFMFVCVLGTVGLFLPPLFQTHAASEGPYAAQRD

| SMILES | effect on specific tracheal nicotine response (CGRP release) ([1]; 10 μM compound, Nicotine 100 μM, FIG. 2) | effect on tracheal supramaximal nicotine response (TRPA1/V1 mediated, CGRP release) ([1]; 10 μM compound, Nicotine 10 mM, FIG. 4) | effect on buccal supramaximal nicotine response (TRPA1/V1 mediated, CGRP release) ([2]; 10 μM compound, Nicotine 10 mM, FIG. 5) | effect on buccal nicotine response (CGRP release) [2] | effect on tracheal KCl response (CGRP release) [3] | calcium influx inhibited ([4]; 1:1 acyl nornicotine:nicotine) [%] | calcium influx inhibited ([4]; 1:10 acyl nornicotine:nicotine) [%] | Activation (threshold) [4, 6] [mM] | pIC50 ([4]; HEK293 nACHR α3β4, calcium influx, v 70 μM nicotine, read-out: Inhibition (IC50 v 70 μM nicotine)) | sensation from the compound itself on the tongue ([5]; applied on filter paper for 2 minutes, human volunteers) | irritation/burn from nicotine after pre-treatment ([5]; compound at 10% of the level of the nicotine challenge, versus water side) | effect on specific tracheal nicotinic response (CGRP release) ([1]; 100 μM compound, Nicotine 100 μM, equimolar, FIG. 6) | effect on basal tracheal response (CGRP release) ([1]; 100 μM compound, before nicotine, FIG. 6) | effect on specific and supramaximal tracheal nicotine response (CGRP release) ([1]; 10 mM compound, Nicotine 10 mM, equimolar, FIG. 7) | relative potency, C8 versus C6 acyl nornicotine ([1]; CGRP release in mouse tissue (tracheal/buccal not specified)) | pIC50 [4] | calcium influx inhibited ([4]; 1:100 acyl nornicotine:nicotine) [%] | relative potency, C8 versus C6 acyl nornicotine ([4]; calcium influx, co-applied with nicotine) |
| --- | --- | --- | --- | --- | --- | --- | --- | --- | --- | --- | --- | --- | --- | --- | --- | --- | --- | --- |
| CCCCCC(=O)N1CCCC1c1cccnc1 (stereo not drawn) [N-Hexanoylnornicotine] | abolishes the specific tracheal nicotine response | does not change the tracheal supramaximal nicotine response | does not change the buccal supramaximal nicotine response | prevent the buccal nicotine response | does not change the KCl response | 100 | 50 | 10 | 5.30 | – | – | – | – | – | – | – | – | – |
| CCCCCCCC(=O)N1CCCC1c1cccnc1 (stereo not drawn) [N-Octanoylnornicotine] | – | – | – | prevent the buccal nicotine response | – | – | 100 | 1 | – | tingling or burning sensation | obvious reduction in irritation/burn | abrogates the specific tracheal nicotinic response | lowers basal tracheal nicotine response | abrogates the specific and supramaximal nicotine response | more potent than a shorter chain (C6) acyl nornicotine | 6.30 | 50 | more potent than shorter chain (C6) acyl nornicotine |
